The values below come from ChEMBL document CHEMBL4024741, “A minimalistic tetrapeptide amphiphile scaffold for transmembrane pores with a preference for sodium” (Bioorg Med Chem Lett, 2017).

Active and inactive are the calls of the source. The calls are words filed in the database; no cut-off is given here.

Data set [1] can be described thus: Binding affinity to potassium ion in 1,2-diphytanoyl-sn-glycero-3-phosphocholine based bilayer membrane assessed as reversal of membrane potential at 0.1 mg/ml in presence of KCl loaded cis membrane.
Data set [2] in a line: Binding affinity to sodium ion in HPTS dye encapsulated EPYC/cholesterol vesicles assessed as increase in internal pH at 20 uM after 2 mins in presence of NaOH loaded external vesicles by fluorescence spectroscopic analysis.
The nature of data set [3]: Effect on membrane integrity in EYPC/cholesterol vesicles at 40 uM by dynamic light scattering method. It counts as ADME.
Data set [4] in a line: Binding affinity to potassium ion in 1,2-diphytanoyl-sn-glycero-3-phosphocholine based bilayer membrane assessed as increase in membrane current at 0.1 mg/ml in presence of KCl loaded cis membrane.
Data set [5] in a line: Binding affinity to sodium ion in HPTS dye encapsulated EPYC/cholesterol vesicles assessed as increase in internal pH at 5 mol% of lipid after 2 mins in presence of NaOH loaded external vesicles by fluorescence spectroscopic analysis (reference value: 5.6 +/- 1.2 10^-3/s).
The nature of data set [6]: Binding affinity to potassium ion in HPTS dye encapsulated EPYC/cholesterol vesicles assessed as increase in internal pH at 5 mol% of lipid after 2 mins in presence of KOH loaded external vesicles by fluorescence spectroscopic analysis (reference value: 5.6 +/- 1.2 10^-3/s).
The nature of data set [7]: Binding affinity to lithium ion in HPTS dye encapsulated EPYC/cholesterol vesicles assessed as increase in internal pH at 5 mol% of lipid after 2 mins in presence of LiOH loaded external vesicles by fluorescence spectroscopic analysis (reference value: 5.6 +/- 1.2 10^-3/s).
A short description of data set [8]: Binding affinity to sodium ion in lucigenin/NaCl encapsulated EPYC/cholesterol vesicle at 10 mol% of lipid by fluorescence spectroscopic method.
Data set [9] is described as follows: Binding affinity to sodium ion in lucigenin/NaCl encapsulated EPYC/cholesterol vesicle by fluorescence spectroscopic method.

As to `CCCCCCCCCCCCCC(=O)N[C@@H](C)C(=O)Nc1cccc(C(=O)N[C@@H](C)C(=O)N[C@H](C)C(=O)OCCOCCOCC)n1`, the Activity was -14.9 mV in data set [1], “Non-Toxic” in data set [3] and 40 pA in [4]. Further, the outcome in data set [2] was Active.

On to `CCCCCCCCCCCCCC(=O)N[C@@H](C)C(=O)N[C@H](C)C(=O)N[C@@H](C)C(=O)Nc1cccc(C(=O)OC)n1`, for which the K in data set [5] amounted to 12.4 ×10⁻³ /s; in data set [6], 15.3 ×10⁻³ /s; in data set [7], 14.3 ×10⁻³ /s. The Activity result in [3] is “Non-Toxic”.

In the case of `CCCCCCCCCCCCCC(=O)N[C@@H](C)C(=O)N[C@H](C)C(=O)N[C@@H](C)C(=O)Nc1cccc(C(=O)OCCOCCOCC)n1`, the K in [5] is 28.9 ×10⁻³ /s; in data set [6], 15.8 ×10⁻³ /s; in [7], 17.5 ×10⁻³ /s; in data set [8], 9.7 ×10⁻³ /s. Moreover, the Activity is -10.8 mV in data set [1], “Non-Toxic” in data set [3] and 30 pA in data set [4]. This compound also showed an EC50 in data set [9] of 0.94 mol%.
